In general, Ki refers to a measure of affinity in units of concentration, obtained from inhibition or displacement. In general, IC50 refers to the point on the concentration scale where inhibition reaches its midpoint. In general, inhibition refers to the change of the read-out against control, counted positive when it falls.

This note sets out measurements from ChEMBL document CHEMBL6092197, “Novel benzenesulfonamide-aroylhydrazone conjugates as carbonic anhydrase inhibitors that induce MAPK/ERK-mediated cell cycle arrest and mitochondrial-associated apoptosis in MCF-7 breast cancer cells” (Bioorg Med Chem, 2024).

One data set concerns the target Carbonic anhydrase 1 (Homo sapiens, UniProt P00915). Briefly: Inhibition of human carbonic anhydrase I assessed as inhibition constant incubated for 15 mins by stopped flow CO2-hydrase assay.
In data set [1] the test system is MCF7. Briefly: cells. The following applies: Homo sapiens, MCF7, 72 h.
Description: Antiproliferative activity against human MCF7 cells assessed as reduction in cell proliferation incubated for 72 hrs by MTT assay
A short description of data set [2]: Selectivity index, ratio of IC50 for human HaCaT cells to IC50 for human HeLa cells. The class given is toxicity. As to conditions: HaCaT cells versus HeLa cells, read-out: Ratio IC50.
Another data set can be described thus: in vitro. As to conditions: human, HaCaT cells.
The subject of the next data set is HeLa. Briefly: cells. As to conditions: Homo sapiens, 72 h.
Data set [3] in a line: Selectivity index, ratio of IC50 for human HaCaT cells to IC50 for human HCT-116 cells. The class given is toxicity. As to conditions: HaCaT cells versus HCT-116 cells, read-out: Ratio IC50.
Another data set addresses Carbonic anhydrase 9 (Homo sapiens, UniProt Q16790). Briefly: Inhibition of human carbonic anhydrase IX assessed as inhibition constant incubated for 15 mins by stopped flow CO2-hydrase assay.
Data set [4] can be described thus: Selectivity index, ratio of IC50 for human HaCaT cells to IC50 for human MCF7 cells. The class given is toxicity. As to conditions: HaCaT cells versus MCF7 cells, read-out: Ratio IC50.
Another data set deals with Carbonic anhydrase 12 (Homo sapiens, UniProt O43570). Briefly: Inhibition of human carbonic anhydrase XII assessed as inhibition constant incubated for 15 mins by stopped flow CO2-hydrase assay.
The target in the next data set is Carbonic anhydrase 2 (Homo sapiens, UniProt P00918). As to the kind of experiment: Inhibition of human carbonic anhydrase II assessed as inhibition constant incubated for 15 mins by stopped flow CO2-hydrase assay.
The test system of another data set is HCT-116. As to the kind of experiment: cells. As to conditions: Homo sapiens, HCT-116, 72 h.
Data set [5] deals with MCF7. As to the kind of experiment: Effect on apoptosis in human MCF7 cells assessed as fold decrease in apoptotic cells at 10 uM preincubated with U0126 for 1 hrs followed by compound addition and measured after 72 hrs by Annexin V-PE/7-AAD staining based flow cytometric analysis. In kind it is functional. On the technique in general: In flow cytometry, cells or beads pass a laser one at a time.

Data set [6] deals with MCF7. Briefly: Antiproliferative activity against human MCF7 cells assessed as reduction in cell proliferation incubated for 48 hrs by MTT assay. In kind it is functional, cell-based. The following applies: MCF7, 48 h. In general terms: Tetrazolium dyes change colour on reduction, which living cells bring about.
In data set [7] the test system is MCF7. Briefly: Inhibition of colony formation in human MCF7 cells assessed as reduction in colony formation at […] preincubated with compound for 24 hrs followed by replacement with DMEM medium and measured after 2 weeks by crystal violet staining based analysis relative to control. In kind it is functional. The following applies: dose 2.5 µM.
In data set [8] the test system is MCF7. As to the kind of experiment: Induction of apoptosis in human MCF7 cells assessed as increase in caspase activity at 10 uM preincubated for 48 hrs followed by carboxyfluorescein-labeled fluoro-methyl ketone peptide addition and measured after 1 hrs by fluorescence based analysis relative to control. In kind it is functional.
Data set [9] relates to MCF7. As to the kind of experiment: Antiproliferative activity against human MCF7 cells assessed as reduction in cell proliferation incubated for 24 hrs by MTT assay. The class given is functional, cell-based. As to conditions: MCF7, 24 h.
The subject of data set [10] is MCF7. As to the kind of experiment: Inhibition of colony formation in human MCF7 cells assessed as reduction in colony formation at 5 uM preincubated with compound for 24 hrs followed by replacement with DMEM medium and measured after 2 weeks by crystal violet staining based analysis relative to control. The class given is functional.
For data set [11], the system named is MCF7. Briefly: Induction of apoptosis in human MCF7 cells assessed as total apoptotic cells at 10 uM incubated for 72 hrs by Annexin V-PE/7-AAD staining based flow cytometric analysis relative to control. The class given is functional.

The structures appear in SMILES notation.

Sequence of Carbonic anhydrase 12 (O43570 whole entry): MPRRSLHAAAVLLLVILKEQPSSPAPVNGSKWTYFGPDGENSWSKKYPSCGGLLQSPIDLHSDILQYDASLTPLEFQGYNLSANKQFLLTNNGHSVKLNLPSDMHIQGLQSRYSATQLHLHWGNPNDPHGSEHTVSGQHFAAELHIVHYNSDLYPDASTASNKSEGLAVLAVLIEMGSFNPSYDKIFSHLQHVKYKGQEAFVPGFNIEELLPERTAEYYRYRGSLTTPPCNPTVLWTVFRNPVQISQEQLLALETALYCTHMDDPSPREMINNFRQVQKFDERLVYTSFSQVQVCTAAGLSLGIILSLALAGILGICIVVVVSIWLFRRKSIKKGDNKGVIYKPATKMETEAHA
Sequence of Carbonic anhydrase 1 (P00915 whole entry): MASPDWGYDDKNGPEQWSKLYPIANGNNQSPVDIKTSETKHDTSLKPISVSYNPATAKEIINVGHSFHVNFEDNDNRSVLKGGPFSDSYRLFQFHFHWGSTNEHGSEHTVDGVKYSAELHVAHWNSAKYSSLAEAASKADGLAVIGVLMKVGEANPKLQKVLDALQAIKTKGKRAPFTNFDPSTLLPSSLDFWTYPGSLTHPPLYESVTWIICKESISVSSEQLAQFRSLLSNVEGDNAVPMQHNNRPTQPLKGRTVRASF
Description for HCT-116: Antiproliferative activity against human HCT-116 cells assessed as reduction in cell proliferation incubated for 72 hrs by MTT assay
Description for HeLa: Antiproliferative activity against human HeLa cells assessed as reduction in cell proliferation incubated for 72 hrs by MTT assay
Description for in vitro: Cytotoxicity against human HaCaT cells assessed as reduction in cell proliferation incubated for 72 hrs by MTT assay

Take `NS(=O)(=O)c1cc(C(=O)N/N=C/c2ccc(O)cc2O)c(SCc2ccc(F)cc2)cc1Cl`: the Ki turned out to be 0.0807 µM on Carbonic anhydrase 1, 0.0801 µM at Carbonic anhydrase 9, 0.0803 µM at Carbonic anhydrase 12 and 0.0561 µM on Carbonic anhydrase 2. Moreover, the IC50 came to 25 µM in the data set with MCF7 [1], 28 µM in the data set with HeLa and 11.5 µM in the data set on HCT-116. Besides, the selectivity ratio in data set [2] came out at 1.1; in data set [3] it was 2.9; in data set [4], 1.2. Also, the half-maximal inhibitory concentration (IC50) at 72 h in “in vitro” came to 32 µM.

Regarding `NNC(=O)c1cc(S(N)(=O)=O)c(Cl)cc1SCc1ccc(F)cc1`, the results for the concentration for half-maximal inhibition (IC50) in the data set with MCF7 [1], in the data set on HeLa and in the data set with HCT-116 were 24 µM, 36 µM and 18 µM, respectively. Besides, the results for the selectivity ratio in data set [2], in data set [3] and in data set [4] were 1.8, 3.6 and 2.7, respectively. Half-maximal inhibition in the data set “in vitro” (IC50 at 72 h) required 65 µM.

In the case of `NS(=O)(=O)c1cc(C(=O)N/N=C/c2ccc(O)cc2O)c(SCc2ccccc2)cc1Cl`, the Ki on Carbonic anhydrase 1 amounted to 0.144 µM; on Carbonic anhydrase 9, 0.0581 µM; at Carbonic anhydrase 12, 0.0568 µM; on Carbonic anhydrase 2, 0.0491 µM. In addition, the 50% inhibitory concentration (IC50) was determined as 22 µM with MCF7 [1], 29 µM with HeLa and 14 µM in the data set with HCT-116. The selectivity ratio in [2] amounted to 2; in data set [3], 4.1; in data set [4] it was 2.6. In the data set “in vitro”, this compound yielded an IC50 at 72 h of 58 µM.

For the compound `NS(=O)(=O)c1cc(C(=O)N/N=C/c2ccc(Br)cc2O)c(SCc2ccc(F)cc2)cc1Cl`, the Ki at Carbonic anhydrase 1 stood at 0.537 µM; on Carbonic anhydrase 9, 0.852 µM; on Carbonic anhydrase 12 it was 0.695 µM; on Carbonic anhydrase 2, 0.646 µM. The “fold change (FC)” value with MCF7 [5] came out at 2.2. Moreover, the half-maximal inhibitory concentration (IC50) came to 6 µM with MCF7 [1]; 6 µM with MCF7 [6]; 18 µM in the data set with HeLa; 90 µM in the data set with MCF7 [9]; 6 µM with HCT-116. The selectivity ratio is 1.8 in data set [2], 5.5 in [3] and 5.5 in [4]. This compound registered an IC50 at 72 h in the data set “in vitro” of 33 µM. For the same compound, the inhibition at […] in the data set on MCF7 [7] stood at 65%. For the same compound, the Activity in the data set with MCF7 [8] worked out at 30%; in the data set with MCF7 [11] it was 60%. Moreover, in the data set with MCF7 [10], the inhibition at 5 µM is 80%.

Take `NNC(=O)c1cc(S(N)(=O)=O)c(Cl)cc1SCc1ccccc1`: the 50% inhibitory concentration (IC50) in the data set with MCF7 [1] came to 105 µM; in the data set with HeLa, 350 µM; in the data set with HCT-116 it was 155 µM.

Turning to `NS(=O)(=O)c1cc(C(=O)N/N=C/c2ccc(Br)cc2O)c(SCc2ccccc2)cc1Cl`, the Ki at Carbonic anhydrase 1 came out at 0.328 µM; at Carbonic anhydrase 9, 0.0857 µM; at Carbonic anhydrase 12 it was 0.0822 µM; at Carbonic anhydrase 2 it was 0.0411 µM. For the same compound, in the data set with MCF7 [5], the “fold change (FC)” value was determined as 2. In addition, the IC50 in the data set on MCF7 [1] came out at 4 µM; in the data set on MCF7 [6], 6 µM; with HeLa, 16 µM; in the data set on MCF7 [9] it was 98 µM. For the same compound, the values for the selectivity ratio in data set [2] and in [4] were 2 and 8.2, respectively. Further, in the data set with MCF7 [7], the inhibition at […] was 80%. For the same compound, the Activity with MCF7 [8] was 30%; in the data set on MCF7 [11], 65%. The inhibition at 5 µM with MCF7 [10] was 85%.
